Converted amounts (≈) assume the structure as drawn.
Tests used:
[1] = system: brine shrimp (Artemia salina Leach); assay: whole plant or invertebrate; type: in vivo; settings: 24 hrs, read-out: BST LC50
Method: The extracts, fractions, and isolated compounds were routinely evaluated for lethality to brine shrimp larvae (BST). The LC50 of brine shrimp (Artemia salina Leach) was determined by substantially the same method described by Meyer et al. [Planta Med., 45: 31-34 (1982)]. The test sample was dissolved in solvent and added to 2-dram vials in an amount to provide 1000, 100, 10, 1, etc. p.p.m. of material in the final brine preparation, assuming complete miscibility in the brine. The vials were dried in vacuo, and artificial sea water, prepared from a commercial salt mixture, was added. Ten brine shrimp larva (nauplii), 48-72 hrs. old, were introduced to the vial, and the volume was made up to 5 ml. with the sea water. After 24 hrs., the percent mortality was computed. Subsequently, LC50 values and 95% confidence limits were calculated by a Finney probit analysis to permit comparison of potencies of extracts and fractions.
Anticancer activity is a potential use even for the crude extract. The bioassay results for the lethality of brine shrimp (BST), the inhibition of crown gall tumors on potato discs (PD), the reversal in morphology of db-cAMP induced AC glioma cells from that of mature, differentiated astrocytes to that of immature AC glioma cells (mouse brain cells) (9ASK), the dose that inhibits cell growth to one-half that of untreated poorly differentiated human epidermic carcinoma (9KB), the dose that inhibits cell growth to one-half that of a methylcholanthrene-induced lymphoid neoplasm in a DBA/2 mouse (9PS), and the percent displacement in a protein kinase C test for initial extract fractions are shown in Table 1. Obviously, the bioactivity is concentrated in F005.

protein kinase C = protein kinase C displacement test; type: binding; settings: 10 μM
[2] = system: human tumor cell line panel; assay: NCI human tumor cell line panel, overall; type: cell-based; settings: Table 6 summary
HOLT-4 = assay: NCI in vitro cytotoxicity, leukemia; type: cell-based; settings: Homo sapiens
HL-60 TB = assay: NCI in vitro cytotoxicity, leukemia; type: cell-based; settings: Homo sapiens
K562 = assay: NCI in vitro cytotoxicity, leukemia; type: cell-based; settings: Homo sapiens
P388/ADR = assay: NCI in vitro cytotoxicity, leukemia; type: cell-based; settings: Mus musculus
H522 = assay: NCI in vitro cytotoxicity, non-small cell lung cancer; type: cell-based; settings: Homo sapiens
H322 = assay: as above; type: cell-based; settings: Homo sapiens
SK-MES-1 = assay: as above; type: cell-based; settings: Homo sapiens
A-549(ATCC) = assay: as above; type: cell-based; settings: Homo sapiens, A549
Description: (§1) Isolated pure compounds were sent to the National Institute of Health, National Cancer Institute, Bethesda, Md., for testing in human cancer cell line panels including leukemia, non-small cell lung cancer, small cell lung cancer, CNS cancer, melanoma, ovarian cancer and renal cancer.
(§2) To test further the selective specificity of antitumor activities, bullatacin was sent to the NIH, NCI at Bethesda, Md., for their human tumor cell line panel tests including leukemia, non-small cell lung cancer, small cell lung cancer, colon cancer, breast cancer, CNS cancer melanoma, ovarian cancer, and renal cancer.

H69 = assay: NCI in vitro cytotoxicity, small cell lung cancer; type: cell-based; settings: Homo sapiens
H146 = assay: NCI in vitro cytotoxicity, small cell lung cancer; type: cell-based; settings: Homo sapiens
SW620 = assay: NCI in vitro cytotoxicity, colon cancer; type: cell-based; settings: Homo sapiens, SW-620
LOVO = assay: NCI in vitro cytotoxicity, colon cancer; type: cell-based; settings: Homo sapiens
HCC-2998 = assay: NCI in vitro cytotoxicity, colon cancer; type: cell-based; settings: Homo sapiens
HT29 = assay: NCI in vitro cytotoxicity, colon cancer; type: cell-based; settings: Homo sapiens, HT-29
SNB-19 = assay: NCI in vitro cytotoxicity, CNS cancer; type: cell-based; settings: Homo sapiens
SNB-44 = assay: NCI in vitro cytotoxicity, CNS cancer; type: cell-based; settings: Homo sapiens, SNB44
SNB-75 = assay: NCI in vitro cytotoxicity, CNS cancer; type: cell-based; settings: Homo sapiens
MALME-3M = assay: NCI in vitro cytotoxicity, melanoma; type: cell-based; settings: Homo sapiens
LOX = assay: NCI in vitro cytotoxicity, melanoma; type: cell-based; settings: Homo sapiens
Description: as §1, §2

SK-MEL2 = assay: NCI in vitro cytotoxicity, melanoma; type: cell-based; settings: Homo sapiens, SK-MEL-2
OVCAR-4 = assay: NCI in vitro cytotoxicity, ovarian cancer; type: cell-based; settings: Homo sapiens
OVCAR-3 = assay: NCI in vitro cytotoxicity, ovarian cancer; type: cell-based; settings: Homo sapiens
A498 = assay: NCI in vitro cytotoxicity, renal cancer; type: cell-based; settings: Homo sapiens
A704 = assay: NCI in vitro cytotoxicity, renal cancer; type: cell-based; settings: Homo sapiens
SN12-K1 = assay: NCI in vitro cytotoxicity, renal cancer; type: cell-based; settings: Homo sapiens, SN12K1
UO-31 = assay: NCI in vitro cytotoxicity, renal cancer; type: cell-based; settings: Homo sapiens
CAKI-1 = assay: NCI in vitro cytotoxicity, renal cancer; type: cell-based; settings: Homo sapiens

## CCCCCCCCCCC(O)C1CCC(C2CCC(C(O)CCCCCCCCCCC(O)CC3=CC(C)OC3=O)O2)O1 (stereo not shown) [Bullatacin]
[1]
  LC50: 0.00159 µg/mL (≈ 0.00255 µM)
Protein kinase C
  displacement in a protein kinase C test: 7%
[2]
  tumor types most sensitive in panel: best active for certain CNS cancers, non-small cell lung cancers, leukemias, and ovarian cancers
HOLT-4
  IC50: 1.41 µg/mL (≈ 2.26 µM)
  IC90: 4.72 µg/mL (≈ 7.58 µM)
HL-60 TB
  IC50: < 0.000926 µg/mL
K562
  IC50: < 0.000926 µg/mL
  IC90: 4.5 µg/mL (≈ 7.22 µM)
P388/ADR
  IC50: < 0.000926 µg/mL
  IC90: 2.56 µg/mL (≈ 4.11 µM)
H522
  IC50: 2.46 µg/mL (≈ 3.95 µM)
  IC90: > 9.24 µg/mL
H322
  IC50: < 0.000926 µg/mL
  IC90: > 9.26 µg/mL
SK-MES-1
  IC50: > 0.0924 µg/mL
  IC90: > 0.0924 µg/mL
A-549(ATCC)
  IC90: > 0.0924 µg/mL
H69
  IC50: 2.44 µg/mL (≈ 3.92 µM)
  IC90: 7.52 µg/mL (≈ 12.1 µM)
H146
  IC90: > 9.26 µg/mL
SW620
  IC50: 0.00564 µg/mL (≈ 0.00905 µM)
  IC90: 5.66 µg/mL (≈ 9.09 µM)
LOVO
  IC50: 0.000915 µg/mL (≈ 0.00147 µM)
  IC90: 4.69 µg/mL (≈ 7.53 µM)
HCC-2998
  IC50: 4.05 µg/mL (≈ 6.5 µM)
HT29
  IC50: 0.00384 µg/mL (≈ 0.00616 µM)
  IC90: > 0.0924 µg/mL
SNB-19
  IC50: > 0.926 µg/mL
  IC90: > 0.926 µg/mL
SNB-44
  IC50: 4.42 µg/mL (≈ 7.1 µM)
  IC90: > 9.26 µg/mL
SNB-75
  IC50: 3.35 µg/mL (≈ 5.38 µM)
  IC90: > 9.26 µg/mL
MALME-3M
  IC50: 2.82 µg/mL (≈ 4.53 µM)
  IC90: 7.67 µg/mL (≈ 12.3 µM)
LOX
  IC50: < 0.000926 µg/mL
  IC90: 3.76 µg/mL (≈ 6.04 µM)
SK-MEL2
  IC90: 8.64 µg/mL (≈ 13.9 µM)
OVCAR-4
  IC50: > 0.0924 µg/mL
  IC90: > 0.0924 µg/mL
OVCAR-3
  IC50: > 0.0924 µg/mL
  IC90: > 0.0924 µg/mL
A498
  IC50: 0.0424 ng/mL (≈ 6.81e-05 µM)
  IC90: 0.00371 µg/mL (≈ 0.00596 µM)
A704
  IC50: 1.36 µg/mL (≈ 2.18 µM)
  IC90: 8 µg/mL (≈ 12.8 µM)
SN12-K1
  IC50: 0.0224 ng/mL (≈ 3.6e-05 µM)
  IC90: 0.000287 µg/mL (≈ 0.000461 µM)
UO-31
  IC50: 1.94 µg/mL (≈ 3.11 µM)
  IC90: > 9.26 µg/mL
CAKI-1
  IC50: 0.00394 µg/mL (≈ 0.00632 µM)
  IC90: > 0.0924 µg/mL

— patent US5229419A, “Chemotherapeutically active acetogenins” (Purdue Research Foundation, priority 1992, dated 1993)
